This note sets out measurements from ChEMBL document CHEMBL1667750, “Synthesis and biological activity of 7H-benzo[4,5]indolo[2,3-b]-quinoxaline derivatives” (Eur J Med Chem, 2011).

Activity calls are given as the source filed them. No cut-off for these calls is given here.

One series deals with L929. The series can be described thus: Decrease in interferon inducing activity in VSV infected in mouse L929 cells at 1.1 uM. In kind it is functional, cell-based.
The next series has as its system Calf thymus DNA. Briefly: Binding affinity to calf thymus DNA by ethidium bromide displacement assay. To be noted: for logKa: Bos taurus. The format is nucleic-acid assay, Bos taurus.
In series [1] the test system is Vesicular stomatitis virus. Briefly: Antiviral activity against VSV infected in mouse L929 cells assessed as protection against virus-induced cytopathic effect treated 24 hrs before viral infection at 13 uM. The format is functional. (Protection from cytopathic effect is a common read-out in antiviral testing.)
Series [2] has as its system Vesicular stomatitis virus. The series can be described thus: Antiviral activity against VSV infected in mouse L929 cells assessed as protection against virus-induced cytopathic effect treated immediately after viral infection at 12.5 uM. The format is functional.
Series [3] relates to Vesicular stomatitis virus. Briefly: Antiviral activity against VSV infected in mouse L929 cells assessed as protection against virus-induced cytopathic effect treated immediately after viral infection at 21.4 uM. In kind it is functional.
A short description of series [4]: Cytotoxicity against mouse L929 cells. The format is cell-based.
Series [5] deals with Vesicular stomatitis virus. The series can be described thus: Antiviral activity against VSV infected in mouse L929 cells assessed as protection against virus-induced cytopathic effect treated 24 hrs before viral infection at 53 uM. The format is functional.
Series [6] has as its system Vesicular stomatitis virus. Briefly: Antiviral activity against VSV infected in mouse L929 cells assessed as protection against virus-induced cytopathic effect treated 24 hrs before viral infection at 113 uM. The format is functional.
In series [7] the test system is Vesicular stomatitis virus. The series can be described thus: Antiviral activity against VSV infected in mouse L929 cells assessed as protection against virus-induced cytopathic effect treated immediately after viral infection at 7.1 uM. The format is functional.
The subject of series [8] is Vesicular stomatitis virus. Briefly: Antiviral activity against VSV infected in mouse L929 cells assessed as protection against virus-induced cytopathic effect treated 24 hrs before viral infection at 6.2 uM. In kind it is functional.
The subject of series [9] is Vesicular stomatitis virus. Briefly: Antiviral activity against VSV infected in mouse L929 cells assessed as protection against virus-induced cytopathic effect treated immediately after viral infection at 6.2 uM. In kind it is functional.
Series [10] relates to Vesicular stomatitis virus. Briefly: Antiviral activity against VSV infected in mouse L929 cells assessed as protection against virus-induced cytopathic effect treated immediately after viral infection at 5.5 uM. The format is functional.
Series [11] deals with Vesicular stomatitis virus. The series can be described thus: Antiviral activity against VSV infected in mouse L929 cells assessed as protection against virus-induced cytopathic effect treated 24 hrs before viral infection at 0.2 uM. In kind it is functional.
For series [12], the system named is Vesicular stomatitis virus. The series can be described thus: Antiviral activity against VSV infected in mouse L929 cells assessed as protection against virus-induced cytopathic effect treated 24 hrs before viral infection at 3.1 uM. The format is functional.
The test system of series [13] is Vesicular stomatitis virus. The series can be described thus: Antiviral activity against VSV infected in mouse L929 cells assessed as protection against virus-induced cytopathic effect treated immediately after viral infection at 25 uM. In kind it is functional.
The subject of series [14] is Vesicular stomatitis virus. The series can be described thus: Antiviral activity against VSV infected in mouse L929 cells assessed as protection against virus-induced cytopathic effect treated immediately after viral infection at 6.7 uM. In kind it is functional.
Series [15] concerns Vesicular stomatitis virus. Briefly: Antiviral activity against VSV infected in mouse L929 cells assessed as protection against virus-induced cytopathic effect treated 24 hrs before viral infection at 30 uM. The format is functional.
In series [16] the test system is Vesicular stomatitis virus. The series can be described thus: Antiviral activity against VSV infected in mouse L929 cells assessed as protection against virus-induced cytopathic effect treated immediately after viral infection at 15 uM. In kind it is functional.
The test system of series [17] is Vesicular stomatitis virus. Briefly: Antiviral activity against VSV infected in mouse L929 cells assessed as protection against virus-induced cytopathic effect treated 24 hrs before viral infection at 110 uM. In kind it is functional.
Series [18] concerns Vesicular stomatitis virus. Briefly: Antiviral activity against VSV infected in mouse L929 cells assessed as protection against virus-induced cytopathic effect treated immediately after viral infection at 27.5 uM. In kind it is functional.
For series [19], the system named is Vesicular stomatitis virus. The series can be described thus: Antiviral activity against VSV infected in mouse L929 cells assessed as protection against virus-induced cytopathic effect treated 24 hrs before viral infection at 3 uM. In kind it is functional.
Series [20] deals with Vesicular stomatitis virus. The series can be described thus: Antiviral activity against VSV infected in mouse L929 cells assessed as protection against virus-induced cytopathic effect treated immediately after viral infection at 21.3 uM. In kind it is functional.
In series [21] the test system is Vesicular stomatitis virus. Briefly: Antiviral activity against VSV infected in mouse L929 cells assessed as protection against virus-induced cytopathic effect treated immediately after viral infection at 50 uM. In kind it is functional.

As usually defined, the pIC50 is −log10 of the IC50, conventionally taken in molar units. A higher pIC50 goes with a small IC50. As usually defined, the Emax is the maximal effect, on the per cent scale that the assay sets. With `CCCN(CCC)CCn1c2ccccc2c2nc3ccccc3nc21`, the result in the series with L929 was Active. Besides, in the series with Calf thymus DNA, the pIC50 amounted to 3.99 and the logKa was determined as 6.09. In addition, the Emax at 13 µM in series [1] is 90%. For the same compound, the Emax at 12.5 µM in [2] was 75%.

Usually CC50 stands for the concentration that lowers cell viability or growth by half. Low readings indicate greater toxicity to the cells, high ones lower toxicity to the cells. On to `CC1CCN(CCn2c3ccc4ccccc4c3c3nc4ccccc4nc32)CC1`, for which the Emax at 21.4 µM in [3] was determined as 51%. The outcome with L929 was Active. Also, in the series with Calf thymus DNA, the pIC50 turned out to be 4.48 and the logKa is 6.58. In series [4], this compound registered a CC50 of over 214 µM. The Emax at 53 µM in series [5] worked out at 30%.

Take `CCN(CC)CCn1c2ccc3ccccc3c2c2nc3ccccc3nc21`: the outcome in the series with L929 was Active. In addition, in the series on Calf thymus DNA, the pIC50 came out at 4.69 and the logKa came to 6.79. The compound further had a CC50 in series [4] of 180 µM. Further, the Emax at 113 µM in [6] came to 14%. In addition, in series [7], the Emax at 7.1 µM came out at 56%.

Take `CC1CCCCN1CCn1c2ccccc2c2nc3ccccc3nc21` (stereo not drawn): the result with L929 was Active. In the series on Calf thymus DNA, the pIC50 is given as 4.08 and the logKa is 6.19. In addition, the Emax at 6.2 µM in [8] came out at 90%. In addition, the Emax at 6.2 µM in [9] came to 77%.

As to `c1ccc2c(c1)ccc1c2c2nc3ccccc3nc2n1CCN1CCOCC1`, the Emax at 5.5 µM in [10] worked out at 50%. Moreover, in the series on L929, the result was Active. Further, in the series on Calf thymus DNA, the pIC50 came out at 4.84 and the logKa turned out to be 6.94. For the same compound, the maximal response (Emax) at 0.2 µM in [11] stood at 10%.

On to `CCCCN(CC)CCn1c2ccccc2c2nc3ccccc3nc21`, for which the result with L929 was Active. In the series with Calf thymus DNA, this compound showed a pIC50 of 3.91 and a logKa of 6.01. Moreover, the Emax at 3.1 µM in series [12] is 50%. In addition, in [2], the Emax at 12.5 µM was determined as 50%.

As for `c1ccc2nc3c(nc2c1)c1ccccc1n3CCN1CCOCC1`, in the series on L929, the result was Active. In the series with Calf thymus DNA, the negative-log IC50 (pIC50) is reported as 3.78 and the logKa worked out at 5.89. Moreover, in series [4], half-maximal cytotoxicity (CC50) was put at 1070 µM. The Emax at 13 µM in [1] was found to be 85%. In series [9], the Emax at 6.2 µM stood at 30%.

For the compound `CCCCN(C)CCn1c2ccccc2c2nc3ccccc3nc21`, in the series on L929, the outcome was Active. For the same compound, in the series on Calf thymus DNA, the pIC50 turned out to be 3.82 and the logKa is 5.93. In series [12], the Emax at 3.1 µM was 75%. In addition, the Emax at 25 µM in series [13] amounted to 80%.

Consider `CC1CCCCN1CCn1c2ccc3ccccc3c2c2nc3ccccc3nc21` (stereo not drawn), for which the result in the series with L929 was Active. In the series with Calf thymus DNA, this compound came in with a pIC50 of 4.73 and a logKa of 6.83. In [4], the CC50 turned out to be 113 µM. The Emax at 53 µM in series [5] is 20%. In [14], the Emax at 6.7 µM turned out to be 50%.

For the compound `c1ccc2nc3c(nc2c1)c1ccccc1n3CCN1CCCC1`, the result in the series on L929 was Active. In the series on Calf thymus DNA, the pIC50 is reported as 3.95 and the logKa is 6.05. The Emax at 3.1 µM in [12] was determined as 85%. Moreover, in series [2], the Emax at 12.5 µM was found to be 100%.

`CN1CCN(CCn2c3ccc4ccccc4c3c3nc4ccccc4nc32)CC1`: the result in the series with L929 was Active. Besides, in the series with Calf thymus DNA, the pIC50 is recorded as 4.84 and the logKa is 6.94. The same compound displayed a CC50 in series [4] of 21.4 µM. The Emax at 13 µM in series [1] stood at 17%. Further, the Emax at 6.7 µM in [14] amounted to 80%.

With `CC1CCN(CCn2c3ccccc3c3nc4ccccc4nc32)CC1`, the outcome in the series with L929 was Active. Besides, in the series on Calf thymus DNA, the pIC50 turned out to be 3.88 and the logKa is 5.98. In [1], the maximal effect (Emax) at 13 µM is 90%. Further, the Emax at 12.5 µM in series [2] was 50%.

Take `c1ccc2nc3c(nc2c1)c1ccccc1n3CCN1CCCCC1`: the result in the series with L929 was Active. In the series with Calf thymus DNA, the pIC50 turned out to be 3.91 and the logKa was found to be 6.01. For the same compound, the Emax at 3.1 µM in series [12] is 90%. In [9], the Emax at 6.2 µM was 75%.

As to `CN(C)CCn1c2ccc3ccccc3c2c2nc3ccccc3nc21`, the outcome with L929 was Active. For the same compound, in the series with Calf thymus DNA, the pIC50 is recorded as 4.84 and the logKa was 6.94. The CC50 in series [4] came out at 49.9 µM. For the same compound, the Emax at 30 µM in series [15] was determined as 21%. Moreover, the Emax at 15 µM in series [16] was determined as 45%.

In the case of `c1ccc2c(c1)ccc1c2c2nc3ccccc3nc2n1CCN1CCCCC1`, the result in the series on L929 was Active. In addition, in the series on Calf thymus DNA, the negative logarithm of the IC50 (pIC50) is given as 4.51 and the logKa turned out to be 6.61. For the same compound, the CC50 in series [4] is over 221 µM. In series [17], the Emax at 110 µM is 20%. The maximum response (Emax) at 27.5 µM in series [18] is 55%.

Turning to `CCCN(CCC)CCn1c2ccc3ccccc3c2c2nc3ccccc3nc21`, in the series on L929, the result was Active. In the series with Calf thymus DNA, this compound gave a pIC50 of 4.8 and a logKa of 6.91. For the same compound, the CC50 in [4] is over 42.6 µM. Also, the Emax at 3 µM in series [19] came to 16%. The Emax at 21.3 µM in series [20] is 48%.

Turning to `c1ccc2nc3c(nc2c1)c1ccccc1n3CCN1CCCCCC1`, the result in the series on L929 was Active. In the series with Calf thymus DNA, this compound came in with a pIC50 of 4.06 and a logKa of 6.16. The Emax at 6.2 µM in series [8] was found to be 90%. In addition, the Emax at 50 µM in series [21] is 100%.

As to `CCN(CC)CCn1c2ccccc2c2nc3ccccc3nc21`, the result in the series with L929 was Active. Besides, in the series on Calf thymus DNA, the pIC50 is on record as 3.97 and the logKa worked out at 6.07. In [8], the Emax at 6.2 µM amounted to 90%. Further, in [2], the Emax at 12.5 µM was determined as 100%.

As to `CN(C)CCn1c2ccccc2c2nc3ccccc3nc21`, the outcome with L929 was Active. In the series on Calf thymus DNA, this compound showed a pIC50 of 3.83 and a logKa of 5.93. In addition, the maximal effect (Emax) at 3.1 µM in series [12] is 75%. In addition, the Emax at 25 µM in series [13] amounted to 100%.

Turning to `CN1CCN(CCn2c3ccccc3c3nc4ccccc4nc32)CC1`, in the series on L929, the outcome was Active. In the series on Calf thymus DNA, this compound returned a pIC50 of 3.77 and a logKa of 5.87. The Emax at 13 µM in [1] came out at 85%. Moreover, the Emax at 12.5 µM in series [2] was determined as 100%.
